“Also recorded” adds a separate entry of the source. Like-named read-outs stand apart in the source and are kept apart here.
How the values were obtained:
[1] = Cellular protein controls and cellular toxicity in MAOI-treated infected cells; format: cell-based
Text: (§1) For treatment with MAOIs, cells were pretreated with the indicated concentration of drug for 4-5 hrs prior to infection and maintained throughout infection. Pargyline (p-8013) and Tranylcypromine (p-8511) were obtained from Sigma (St. Louis, Mo.).

[2] = system: viral IE promoters (histone H3, H3K9 and H3K4 methylation); experiment: Chromatin immunoprecipitation of viral IE promoters in MAOI-treated infected cells; format: cell-based; conditions: for nucleosomes bearing repressive marks on the viral IE promoters (histone H3 and H3K9 methylation): in the presence of drug
Method: Chromatin immunoprecipitations (ChIP) from extracts of control, HCF-1 depleted, and LSD1 depleted cells were done essentially as described (Narayanan et al., Proc. Natl. Acad. Sci. USA, 2007, 104, 10835-40). Recovered DNA was subjected to semi-quantitative PCR with dilutions of input DNA to insure linearity using PCR Supermix (Invitrogen, Carlsbad, Calif.) with the following conditions: 95° C. for 2 min followed by 20 cycles of 95° C. for 30 sec; 59° C. for 30 sec; 72° C. for 30 sec. The signal intensities of individual bands, resolved in ethidium bromide agarose gels, were calculated as a percentage of the intensity of the input extract after subtraction of the appropriate background antibody controls. Signal intensities of resolved bands were quantitated using a Kodak 4000MM Image Station.
Samples also were analyzed, in triplicate, by qPCR using ABI Sybr Green PCR Master Mix. For qPCR, samples were run on a ABI PRISM 7900HT with the following conditions: 95° C. for 10 min followed by 40 cycles of 95° C. for 15 sec; 57° C. for 15 sec; 72° C. for 30 sec. Results were analyzed using ABI SDS 2.3 software.
as §1

[3] = system: varicella zoster virus (VZV); experiment: VZV infection of cells treated with MAOIs; qRT-PCR of IE62 mRNA and IE proteins; format: cell-based; conditions: VZV-infected cells, 4 hrs, increasing amounts of drug; relative to DMSO treated cells
Method: The methods of Example 1 were followed.
(§2) Cell infections: For HSV, cells were infected with 0.1 plaque forming units (PFU) of HSV per cell for 24 hrs in the presence of 2 mM Tranylcypromine (TCP) or control DMSO. The resulting viral yields were determined by titer of infected cell lysates on Vero cell monolayers. VZV infections were performed as in Example 3.

Adenovirus Type 5 = conditions: HeLa cells, 2 mM, 5 hours prior to infection, 2 or 4 hours infection
Method: Viral infection and treatment with TCP: HeLa cells (2×10^6) were treated with control DMSO (D) or 2 mM Tranylcypromine (T) for 5 hours prior to infection with various amounts of Adenovirus Type 5 (1.2×10^8, 2.3×10^8, and 4.5×10^8 NAS IU) for 2 or 4 hours. Equal amounts of infected cell lysates were resolved by SDS-PAGE and Western blotted with anti-E1A, anti-LSD1, and anti-β tubulin antibodies. HEK293 and uninfected HeLa cell lysates represented E1A positive and negative controls.
HeLa cells (2×10^6) were treated with control DMSO (D) or various concentrations of Tranylcypromine (TCP) for 5 hours prior to infection with 2.3×10^9 NAS IU of adenovirus Type 5 for 2 hours. Equal amounts of infected cell lysates were resolved by SDS-PAGE and Western blotted with anti-E1A, anti-β Tubulin, and anti-TBP antibodies.

HSV = conditions: 0.1 PFU HSV per cell, 24 hrs, 2 mM TCP vs DMSO
Method: as §2

[4] = system: herpes simplex virus (HSV); experiment: HSV infection of cells treated with MAOIs; qRT-PCR of HSV IE genes and IE proteins; format: cell-based, HSV-1 strain 17; conditions: HSV-infected cells, selected concentrations of drug; relative to DMSO treated cells
[5] = system: HSV IE mRNA (ICP27, ICP4); experiment: Nested RT-PCR of viral IE mRNAs in explanted latently infected ganglia; format: cell-based, Balb/c mice; conditions: paired ganglia explanted 12 hrs; 100 μM acyclovir or 2 mM TCP
Method: For the detection of viral IE and cellular mRNAs post explant, 8 ganglia from HSV latently infected or mock infected Balb/c mice were explanted in the presence of DMSO, 100 μM acyclovir, or 2 mM TCP for the indicated times. cDNAs were prepared from total RNA and amplified by qPCR (cellular Sp1 and TBP controls) or nested PCR (viral IE). Primer sets for the nested RT-PCR were as follows:
cDNA samples were normalized to one another according to the level of cellular control Sp1 mRNA. To insure linearity and sensitivity of nested PCR reactions, samples were amplified in parallel with dilutions of cDNA prepared from 3T3 cells infected with HSV at 6.4×10^−5 pfu/cell for 4 hrs. PCR products were resolved in agarose gels and quantitated using Kodak Image Station 4000MM Digital Imaging System.

HSV-1 (strain 17) = experiment: HSV reactivation: viral yield from explanted trigeminal ganglia of latently infected mice; format: cell-based, Balb/c mice
Method: (§3) Latently infected mice and trigeminal ganglia: Balb/c mice were infected with 5×10^5 PFU HSV-1 (strain 17) per eye after corneal scarification. Latently infected mice were sacrificed 30 days post clearance of the primary infection and trigeminal ganglia were rapidly explanted into culture in the presence or absence of TCP or control (DMSO or acyclovir). Post explant incubation as indicated, the ganglia were homogenized and briefly sonicated. The reactivated viral yield of each ganglia was determined by titering the clarified supernatant on Vero cells.
Statistical analyses: Statistical comparisons were made using Wilcoxon signed rank test (paired ganglia) with a statistical significance of <0.05; Kruskal-Wallis test with post hoc Dunn's multiple comparison test (drug titration and reversal) with a statistical significance of <0.025; Mann-Whitney U test with Dunn's post hoc adjustment (non-paired ganglia time course) with a statistical significance of <0.025; or Fischer's Exact Test with a statistical significance of <0.05. Analyses were made using Prism (V5.0a) and are expressed as the mean+/−s.e.m.
Non-paired ganglia time course statistic analysis: Comparisons were made between control (DMSO) and TCP treated ganglia on day 2 and day 4 post explant. Each comparison utilized a one-sided Mann-Whitney U test followed by application of the Dunn's post hoc adjustment to the p-values. Significant differences were found between DMSO and TCP on day 2 (p=0.0043) and on day 4 (p=0.0011). Both of these differences are still significant after applying the Dunn's adjustment as both are less than the alpha level (α=0.025). The Mann-Whitney tests used an exact p-value for small sample sizes. n=6 for each sample set.
Paired ganglia statistical analysis: Each data point was the result of a single ganglia divided and treated in the presence and absence of TCP. Therefore, a Wilcoxon signed rank test was used to assess differences between each treated and untreated sample. The significant difference was p=0.0002. This test used an exact p-value for small sample sizes with an α level of 0.05. n=16 for each sample set.
TCP titration statistical analysis: To determine at what concentration TCP that would produce a significant reduction in viral load, a Kruskal-Wallis (K-W) test with Dunn's post hoc comparison was used. The K-W test was appropriate due to the comparison of five samples of data that are not normally distributed. Significant differences were found between the five groups (p=0.0007, K-W=19.39). […] No significant difference was found between 1.0 and 1.5 or 1.5 and 2.0 mM data sets. n=5 for control, 0.5, 1.0, and 2.0 mM; n=6 for […].
TCP reversal statistical analysis: Viral yields from ganglia treated without TCP for 2 days, treated with TCP for 2 days, or treated with TCP for 2 days followed by incubation in the absence of drug for 3 days were compared using the K-W test followed by Dunn's post hoc comparisons. The K-W test was appropriate due to the comparison of three samples of data that are not nominally distributed. Significant differences were found between the groups ([…], K-W=10.3).

HSV ICP8 = experiment: ICP8 immunofluorescence of explanted latently infected trigeminal ganglia; format: cell-based, Balb/c mice; conditions: for ganglia with ICP8 (+) neurons: explant 48 hrs in the presence of drug
Method: as §3
Immunofluorescence statistical analysis: Trigeminal ganglia (16 DMSO/Control, 15 acyclovir, and 15 TCP) were fixed at 48 hours post explants. Serial sections representing the entire ganglia were stained and scored by confocal microscopy.
Therefore, latently infected ganglia were explanted in the presence of DMSO (control vector), acyclovir (to prevent viral DNA replication and spread), or TCP for 48 hrs. Ganglia were fixed and sections were probed with antibodies to HSV ICP8, the viral-encoded single stranded binding protein.

**Q.** What does the source list for `N[C@@H]1C[C@H]1c1ccccc1` (racemic) [TCP, Tranylcypromine]?
**A.** cellular toxicity ([1]; VZV and HSV infected cells treated with inhibitor): no significant cellular toxicity; histone H3 and H3K9 trimethylation on viral IE promoters ([2]; in the presence of TCP): substantial increase; level of H3K4 trimethylation on viral IE promoters ([2]; in the presence of TCP): did not significantly change; nucleosomes bearing repressive marks on the viral IE promoters (histone H3 and H3K9 methylation) [2]: accumulated; viral mRNA (IE62) and IE proteins [3]: dose dependent decrease; expression of the adenovirus IE protein E1A (Adenovirus Type 5): inhibits the expression; reduction of viral yields (HSV): ~1000 fold; viral mRNA (HSV IE genes) and IE proteins [4]: dose dependent decrease; ICP27 mRNA level [5]: not significantly above that of background controls; reduction in viral load vs control (DMSO) (HSV-1 (strain 17); 0.5 mM TCP, 2 days explant, Dunn's post hoc): did not; reduction in viral load vs control (DMSO) (HSV-1 (strain 17); 1.0 mM TCP, 2 days explant, Dunn's post hoc p<0.05): showed significant differences; reduction in viral load vs control (DMSO) (HSV-1 (strain 17); 1.5 mM TCP, 2 days explant, Dunn's post hoc p<0.05): showed significant differences; viral reactivation following drug removal (TCP-R) (HSV-1 (strain 17); 2 mM TCP 2 days, then 3 days in the absence of drug): high level of viral reactivation; also recorded: HSV reactivation; reduction in viral load vs control (DMSO) (HSV-1 (strain 17); 2.0 mM TCP, 2 days explant, Dunn's post hoc p<0.05): showed significant differences; viral reactivation (viral yield), paired ganglia (HSV-1 (strain 17); each half of a ganglia explanted with or without 2 mM TCP, 2 days, p=0.0002, n=16): inhibition of viral reactivation; also recorded: decrease in viral yield; reactivation of HSV-1 (viral yield), non-paired ganglia time course (HSV-1 (strain 17); explant 2 or 4 days, 2 mM TCP vs DMSO, p=0.0043 (day 2), 0.0011 (day 4), n=6): significantly reduced; also recorded: decrease in viral yield; HSV reactivation at various (lower) levels of TCP (HSV-1 (strain 17); titration of TCP, 2 days explant): lower levels also were effective; also recorded: inhibition of HSV reactivation; odds of viral reactivation, DMSO treated vs TCP treated samples (Odds Ratio) (HSV ICP8; 48 hours post explant): 60.6667 times higher; odds of viral reactivation, acyclovir treated vs TCP treated samples (Odds Ratio) (HSV ICP8; 48 hours post explant): 42.0000 times higher; ganglia with ICP8 (+) neurons (HSV ICP8): 1 of 15

**Q.** Which results are given for `Nc1nc2c(ncn2COCCO)c(=O)[nH]1` [acyclovir]?
**A.** ICP27 mRNA level [5]: readily detected; odds of viral reactivation, DMSO treated vs acyclovir treated samples (Odds Ratio) (HSV ICP8; 48 hours post explant): 1.4444 times higher; ganglia with ICP8 (+) neurons (HSV ICP8): 9 of 12

**Q.** For `C#CCN(C)Cc1ccccc1` [Pargyline], which cellular toxicity [1] is on record?
**A.** Its cellular toxicity is “no significant cellular toxicity”.

**Q.** What about the “nucleosomes bearing repressive marks on the viral IE promoters (histone H3 and H3K9 methylation)” value [2] of the same molecule?
**A.** The value was “accumulated”.

**Q.** And the “viral mRNA (IE62) and IE proteins” value [3]?
**A.** Its value is “dose dependent decrease”.

**Q.** And the “viral mRNA (HSV IE genes) and IE proteins” value [4]?
**A.** The value was “dose dependent decrease”.

Source: patent publication US9499821B2, “Preventing or treating viral infection using an inhibitor of the LSD1 protein, a MAO inhibitor or an inhibitor of LSD1 and a MAO inhibitor” (The United States of America, as represented by the …, priority 2008, dated 2016)
